IC50 data for 21 molecules are collected here from patent publication US12435060B2, “Acylamino bridged heterocyclic compound, and composition and application thereof” (BEIJING SCITECH-MQ PHARMACEUTICALS LIMITED, priority 2019, dated 2025).

The assay relates to HT29 cells. The assay is described as follows: Inhibition of cell necrosis (CCK8 method), induced programmed necrosis of HT29 cells. The assay is classed as cell-based. The conditions noted are these: Homo sapiens, HT-29; rescue from necrosis induced by TNF-α 20 ng/mL, AT-406 1 μM, Z-VAD-FMK 20 μM; 16-20 hours; CCK-8, OD 450 nm. The gist of the method: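 Rescue from programmed necrosis was scored by CCK-8 absorbance at 450 nm after 16-20 h of TNF-α (20 ng/mL), AT-406 (1 μM) and Z-VAD-FMK (20 μM) at 37 °C, 5% CO2. HT29 cells had received compound 30 min earlier across nine 4-fold dilutions (top 25000 nM final). IC50 came from % inhibition relative to uninduced and induced-only wells.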

In turn, `CCC(O)(CC)CCCOc1ccc(F)c(-c2cc(NC(=O)c3nnc(CC4CCCCC4)[nH]3)ncc2Cl)c1` [Example 324, 5-(cyclohexylmethyl)-N-(5-chloro-4-(5-((4-ethyl-4-hydroxyhexyl)oxy)-2-fluorophenyl)pyridin-2-yl)-4H-1,2,4-triazole-3-carboxamide] gave an IC50 of 0.1 to 1 µM.

`CC(C)(O)CCCCOc1ccc(F)c(-c2cc(NC(=O)c3nnc(Cc4ccccc4F)[nH]3)ncc2Cl)c1` [Example 325, N-(5-chloro-4-(2-fluoro-5-((5-hydroxyl-5-methylhexyl)oxy)phenyl)pyridin-2-yl)-5-(2-fluorobenzyl)-4H-1,2,4-triazole-3-carboxamide] returned an IC50 of 0.1 to 1 µM.

For the molecule `CC(C)(O)CCCCOc1ccc(F)c(-c2cc(NC(=O)c3nnc(CC4CCCCC4)[nH]3)ncc2Cl)c1` [Example 326, 5-(cyclohexylmethyl)-N-(5-chloro-4-(2-fluoro-5-((5-hydroxyl-5-methylhexyl)oxy)phenyl)pyridin-2-yl)-4H-1,2,4-triazole-3-carboxamide], the IC50 lay within 0.1 to 1 µM.

Consider `O=C(Nc1cc(-c2cc(OCC3CCOCC3)ccc2F)c(F)cn1)c1nnc(Cc2ccccc2F)[nH]1` [Example 327, N-(5-fluoro-4-(2-fluoro-5-((tetrahydro-2H-pyran-4-yl)methoxy)phenyl)pyridin-2-yl)-5-(2-fluorobenzyl)-4H-1,2,4-triazole-3-carboxamide], for which the IC50 is no more than 0.1 µM.

As for `O=C(Nc1cc(-c2cc(OCC3CCOCC3)ccc2F)c(F)cn1)c1nnc(CC2CCCCC2)[nH]1` [Example 328, 5-(cyclohexylmethyl)-N-(5-fluoro-4-(2-fluoro-5-((tetrahydro-2H-pyran-4-yl)methoxy)phenyl)pyridin-2-yl)-4H-1,2,4-triazole-3-carboxamide], the IC50 was no more than 0.1 µM.

As for `O=C(Nc1cc(-c2cc(OCC3CCOCC3)ccc2F)c(Cl)cn1)c1nnc(Cc2ccccc2F)[nH]1` [Example 329, N-(5-chloro-4-(2-fluoro-5-((tetrahydro-2H-pyran-4-yl)methoxy)phenyl)pyridin-2-yl)-5-(2-fluorobenzyl)-4H-1,2,4-triazole-3-carboxamide], the IC50 fell in the range of 0.1 to 1 µM.

For `O=C(Nc1cc(-c2cc(OCC3CCOCC3)ccc2F)c(Cl)cn1)c1nnc(CC2CCCCC2)[nH]1` [Example 330, 5-(cyclohexylmethyl)-N-(5-chloro-4-(2-fluoro-5-((tetrahydro-2H-pyran-4-yl)methoxy)phenyl)pyridin-2-yl)-4H-1,2,4-triazole-3-carboxamide], the IC50 lay in the range of 0.1 to 1 µM.

For `Cc1cnc(NC(=O)c2nnc(Cc3ccccc3F)[nH]2)cc1-c1cc(OCC2CCOCC2)ccc1F` [Example 331, N-(4-(2-fluoro-5-((tetrahydro-2H-pyran-4-yl)methoxy)phenyl)-5-methylpyridin-2-yl)-5-(2-fluorobenzyl)-4H-1,2,4-triazole-3-carboxamide], the IC50 lay in the range of 1 to 10 µM.

`Cc1cnc(NC(=O)c2nnc(CC3CCCCC3)[nH]2)cc1-c1cc(OCC2CCOCC2)ccc1F` [Example 332, 5-(cyclohexylmethyl)-N-(4-(2-fluoro-5-((tetrahydro-2H-pyran-4-yl)methoxy)phenyl)-5-methylpyridin-2-yl)-4H-1,2,4-triazole-3-carboxamide]: the IC50 lay within 1 to 10 µM.

`O=C(Nc1cc(-c2cc(OCCC3CCOCC3)ccc2F)c(Cl)cn1)c1nnc(Cc2ccccc2F)[nH]1` [Example 333, N-(5-chloro-4-(2-fluoro-5-(2-(tetrahydro-2H-pyran-4-yl)ethoxy)phenyl)pyridin-2-yl)-5-(2-fluorobenzyl)-4H-1,2,4-triazole-3-carboxamide] returned an IC50 of 0.1 to 1 µM.

Molecule `O=C(Nc1cc(-c2cc(OCCC3CCOCC3)ccc2F)c(Cl)cn1)c1nnc(CC2CCCCC2)[nH]1` [Example 334, N-(5-chloro-4-(2-fluoro-5-(2-(tetrahydro-2H-pyran-4-yl)ethoxy)phenyl)pyridin-2-yl)-5-(cyclohexylmethyl)-4H-1,2,4-triazole-3-carboxamide] gave an IC50 of 0.1 to 1 µM.

`Cc1cnc(NC(=O)c2nnc(Cc3ccccc3F)[nH]2)cc1-c1cc(OCCC2CCOCC2)ccc1F` [Example 335, N-(4-(2-fluoro-5-(2-(tetrahydro-2H-pyran-4-yl)ethoxy)phenyl)-5-methylpyridin-2-yl)-5-(2-fluorobenzyl)-4H-1,2,4-triazole-3-carboxamide]: the IC50 fell in the range of 1 to 10 µM.

With `Cc1cnc(NC(=O)c2nnc(CC3CCCCC3)[nH]2)cc1-c1cc(OCCC2CCOCC2)ccc1F` [Example 336, 5-(cyclohexylmethyl)-N-(4-(2-fluoro-5-(2-(tetrahydro-2H-pyran-4-yl)ethoxy)phenyl)-5-methylpyridin-2-yl)-4H-1,2,4-triazole-3-carboxamide], the IC50 lay in the range of 1 to 10 µM.

`CC(C)(O)CCCOc1ccc(Cl)c(-c2ccnc(NC(=O)c3nnc(Cc4ccccc4)[nH]3)c2)c1` [Example 337, 5-benzyl-N-(4-(5-((4-hydroxy-4-methylpentyl)oxy)-2-chlorophenyl)pyridin-2-yl)-4H-1,2,4-triazole-3-carboxamide] came in with an IC50 of no more than 0.1 µM.

`CC(C)(O)CCCOc1ccc(Cl)c(-c2ccnc(NC(=O)c3nnc(Cc4ccccc4F)[nH]3)c2)c1` [Example 338, N-(4-(2-chloro-5-((4-hydroxy-4-methylpentyl)oxy)phenyl)pyridin-2-yl)-5-(2-fluorobenzyl)-4H-1,2,4-triazole-3-carboxamide] came in with an IC50 of no more than 0.1 µM.

The molecule `CC(C)(O)CCCOc1ccc(Cl)c(-c2ccnc(NC(=O)c3nnc(Cc4ccc(F)c(F)c4)[nH]3)c2)c1` [Example 339, N-(4-(2-chloro-5-((4-hydroxy-4-methylpentyl)oxy)phenyl)pyridin-2-yl)-5-(3,4-difluorobenzyl)-4H-1,2,4-triazole-3-carboxamide] yielded an IC50 of 0.1 to 1 µM.

The molecule `CC(C)(O)CCCOc1ccc(Cl)c(-c2ccnc(NC(=O)c3nnc(Cc4cc(Cl)ccc4F)[nH]3)c2)c1` [Example 340, 5-(5-chloro-2-fluorobenzyl)-N-(4-(2-chloro-5-((4-hydroxy-4-methylpentyl)oxy)phenyl)pyridin-2-yl)-4H-1,2,4-triazole-3-carboxamide] gave an IC50 of 0.1 to 1 µM.

`CC(C)(O)CCCOc1ccc(Cl)c(-c2ccnc(NC(=O)c3nnc(Cc4cc(F)cc(Cl)c4)[nH]3)c2)c1` [Example 341, N-(4-(2-chloro-5-((4-hydroxy-4-methylpentyl)oxy)phenyl)pyridin-2-yl)-5-(3-chloro-5-fluorobenzyl)-4H-1,2,4-triazole-3-carboxamide] returned an IC50 of 0.1 to 1 µM.

With `CC(C)(O)CCCOc1ccc(Cl)c(-c2ccnc(NC(=O)c3nnc(Cc4ccc(F)c(Cl)c4)[nH]3)c2)c1` [Example 342, 5-(3-chloro-4-fluorobenzyl)-N-(4-(2-chloro-5-((4-hydroxy-4-methylpentyl)oxy)phenyl)pyridin-2-yl)-4H-1,2,4-triazole-3-carboxamide], the IC50 lay in the range of 0.1 to 1 µM.

In turn, `COc1cc(Cc2nnc(C(=O)Nc3cc(-c4cc(OCCCC(C)(C)O)ccc4Cl)ccn3)[nH]2)ccc1F` [Example 343, N-(4-(2-chloro-5-((4-hydroxy-4-methylpentyl)oxy)phenyl)pyridin-2-yl)-5-(4-fluoro-3-methoxybenzyl)-4H-1,2,4-triazole-3-carboxamide] showed an IC50 of 1 to 10 µM.

`Cc1cc(F)cc(Cc2nnc(C(=O)Nc3cc(-c4cc(OCCCC(C)(C)O)ccc4Cl)ccn3)[nH]2)c1` [Example 344, N-(4-(2-chloro-5-((4-hydroxy-4-methylpentyl)oxy)phenyl)pyridin-2-yl)-5-(3-fluoro-5-methylbenzyl)-4H-1,2,4-triazole-3-carboxamide] yielded an IC50 of 0.1 to 1 µM.

For orientation: IC50 means the concentration that gives 50% inhibition.
